{"source": "patent US11661437B2", "about": "“Steroid derivative regulators, method for preparing the same, and uses thereof” (priority 2018, dated 2023)", "key": {"[1]": {"test": "Pharmacokinetic assay in Balb/c mice (plasma and brain tissue)", "type": "in vivo", "conditions": "male, mouse, po", "protocol": "Balb/c mice were used as test animals. The pharmacokinetic behavior in mice (plasma and brain tissue) of the compounds of Example 2, Example 5, Example 7, Example 12, Example 18, Example 23, Example 26, Example 38, Example 41, Example 50, Example 51 and Example 66 orally administrated at a dose of 5 mg/kg was studied.\nEach group had 24 male Balb/c mice. After an overnight fast, Balb/c mice were administrated p.o. with the test compound at an administration dose of 5 mg/kg and an administration volume of 10 mL/kg.\n0.2 ml of blood was taken from the heart before administration and at 0, 0.5, 1, 2, 4, 6, 8 and 24 hours after administration. The samples were stored in EDTA-K2 tubes, and centrifuged for 6 minutes at 4° C., 6000 rpm to separate the plasma. The plasma samples were stored at −80° C. The mice were sacrificed with CO2, and the whole brain tissue was taken out, weighed, placed in a 2 mL centrifuge tube and stored at −80° C.\n1) 160 μL of acetonitrile was added to 40 μL of the plasma sample for precipitation, and then the mixture was centrifuged for 5-20 minutes at 3500×g.\n2) 90 μL of acetonitrile containing the internal standard (100 ng/mL) was added to 30 μL of the plasma and brain homogenate samples for precipitation, and then the mixture was centrifuged for 8 minutes at 13000 rpm.\n3) 70 μL of the treated supernatant was taken and added to 70 μL of water, and mixed by vortex for 10 minutes. 20 μL of the mixture was taken to analyze the concentration of the test compound by LC/MS/MS. LC/MS/MS analysis instrument: AB Sciex API 4000 Qtrap.\n2.6 Liquid Chromatography Analysis • Liquid chromatography condition: Shimadzu LC-20AD pump. • Chromatographic column: Agilent ZORBAX XDB-C18 (50×2.1 mm, 3.5 μm); Mobile phase: Eluent A was 0.1% formic acid in water, and Eluent B was acetonitrile. • Flow rate: 0.4 mL/min • Elution time: 0-4.0 minutes the eluent is as follows:\nThe main parameters of pharmacokinetics were calculated by WinNonlin 6.1."}, "CD-1 mice": {"tested_on": "CD-1 mice", "test": "In vivo pharmacodynamic test in the PTZ-induced epilepsy model in mice", "conditions": "3 mpk p.o., PTZ 120 mg/kg s.c., 30 min observation", "protocol": "The PTZ-induced epilepsy model in CD-1 mice was established, and the antiepileptic effect of the compounds of Example 5 and Example 23 was evaluated using this model.\n30 male CD-1 mice were purchased from Beijing Vital River Laboratory Animal Technology Co. Ltd. The test animals were adapted at the animal room in the third building of Shanghai ChemPartner Co., Ltd for 7 days before the test. The average body weight of the animals on the test day was 32.2±0.2 grams. Feeding environment: 5 animals/cage, room temperature 23±2° C., 12/12 hours of light and dark cycle, free access to food and water.\n1) Vehicle/PTZ: 0.5% CMC-Na+1% Tween-80 (10 ml/kg, p.o.), administrated 0.5 hr before the PTZ administration; PTZ ([…], s.c.), administrated before the test;\n2) 3 mg/kg of the compounds of Examples/PTZ: the compounds of Example 5 and Example 23 (3 mg/kg, 10 ml/kg, p.o.), administrated 0.5 hr before the PTZ administration; PTZ ([…], s.c.), administrated before the test.\n3) The compounds of Example 5 and Example 23 were administrated respectively 1 hour before the PTZ administration, or 0.5% CMC-NA+1% Tween-80, the compounds of Example 5 and Example 23 were administrated respectively 0.5 hour before the PTZ administration;\n4) PTZ (120 mg/kg) was administrated subcutaneously before the test observation, and this time point was recorded as the observation start point;\n6) The possible side effects induced by the drug after the administration were observed and recorded, which can be divided into four levels: • None: normal • Mild sedation • Moderate sedation • Severe sedation\nThe mice were randomly grouped, marked and weighed; 10 mice per group. The test compound was administrated orally at an administration volume of 10 mL/kg 30-60 minutes before the PTZ administration.\nPTZ (120 mg/kg) was administrated subcutaneously before the test observation, and this time point was recorded as the observation start point; after the administration of PTZ, the animal was immediately placed in the observation box and observed for 30 minutes, and the followings were recorded: a) the incubation period of the first clonic seizure, b) the incubation period of the first generalized tonic seizure, c) the number of clonic seizures, d) the number of generalized tonic seizures, e) the time when the animal died.\nAll measurement data were expressed as Mean±SEM, and analysed with Prism 6.0 statistical software."}, "[2]": {"conditions": "Balb/c, in vivo, 5 mg/kg, Area under curve AUC0-t"}, "[3]": {"conditions": "Balb/c, in vivo, 5 mg/kg, Half-life t1/2"}, "[4]": {"conditions": "Balb/c, in vivo, 5 mg/kg, Mean residence time MRT"}, "[5]": {"conditions": "Balb/c, in vivo, 5 mg/kg, Peak time tmax"}, "[6]": {"conditions": "Balb/c, in vivo, 5 mg/kg, Plasma concentration Cmax"}}, "note": "Read-outs that look alike come from different tables or passages of the source.", "data": [{"smiles": "C[C@@]1(O)CC[C@@]2(F)[C@H](CC[C@H]3[C@@H]4CC[C@H](C(=O)Cn5cc(C#N)cn5)[C@@]4(C)CC[C@@H]32)C1", "note": "[Example 2, 1-(2-((3R,5R,8S,9S,10R,13S,14S,17S)-10-Fluoro-3-hydroxy-3,13-dimethylhexadecahydro-1H-cyclopenta[a]phenanthren-17-yl)-2-oxoethyl)-1H-pyrazole-4-carbonitrile]", "values": [{"measurement": "AUC(0-t)", "setting": "[1]; Balb/c, brain, 5 mg/kg, Balb/c mice, 5 mg/kg p.o., brain tissue, read-out: Area under curve AUC0-t", "value": 1770, "unit": "ng·h/mL"}, {"measurement": "AUC(0-inf)", "setting": "[1]; Balb/c, brain, 5 mg/kg, Balb/c mice, 5 mg/kg p.o., brain tissue, read-out: Area under curve AUC0-∞", "value": 1790, "unit": "ng·h/mL"}, {"measurement": "half-life", "setting": "[1]; Balb/c, brain, 5 mg/kg, Balb/c mice, 5 mg/kg p.o., brain tissue, read-out: Half-life t1/2 (converted)", "value": 1.49, "unit": "h"}, {"measurement": "MRT", "setting": "[1]; Balb/c, brain, 5 mg/kg, Balb/c mice, 5 mg/kg p.o., brain tissue, read-out: Mean residence time MRT", "value": 2.26, "unit": "h"}, {"measurement": "Cmax", "setting": "[1]; Balb/c, brain, 5 mg/kg, Balb/c mice, 5 mg/kg p.o., brain tissue, read-out: Plasma concentration Cmax", "value": 655, "unit": "ng/mL"}, {"measurement": "AUC(0-t)", "setting": "[1]; Balb/c, plasma, 5 mg/kg, Balb/c mice, 5 mg/kg p.o., plasma, read-out: Area under curve AUC0-t", "value": 2660, "unit": "ng·h/mL"}, {"measurement": "AUC(0-inf)", "setting": "[1]; Balb/c, plasma, 5 mg/kg, Balb/c mice, 5 mg/kg p.o., plasma, read-out: Area under curve AUC0-∞", "value": 2710, "unit": "ng·h/mL"}, {"measurement": "half-life", "setting": "[1]; Balb/c, plasma, 5 mg/kg, Balb/c mice, 5 mg/kg p.o., plasma, read-out: Half-life t1/2 (converted)", "value": 1.49, "unit": "h"}, {"measurement": "MRT", "setting": "[1]; Balb/c, plasma, 5 mg/kg, Balb/c mice, 5 mg/kg p.o., plasma, read-out: Mean residence time MRT", "value": 2.49, "unit": "h"}, {"measurement": "Cmax", "setting": "[1]; Balb/c, plasma, 5 mg/kg, Balb/c mice, 5 mg/kg p.o., plasma, read-out: Plasma concentration Cmax", "value": 846, "unit": "ng/mL"}, {"measurement": "Tmax", "setting": "[1]; Balb/c mice, 5 mg/kg p.o., brain tissue, read-out: Peak time tmax", "value": 1, "unit": "h"}, {"measurement": "Tmax", "setting": "[1]; Balb/c mice, 5 mg/kg p.o., plasma, read-out: Peak time tmax", "value": 1, "unit": "h"}]}, {"smiles": "C[C@@]1(O)CC[C@@]2(F)[C@H](CC[C@H]3[C@@H]4CC[C@H](C(=O)CNc5ccc(F)cc5)[C@@]4(C)CC[C@@H]32)C1", "note": "[Example 23, 1-((3R,5R,8S,9S,10R,13S,14S,17S)-10-Fluoro-3-hydroxy-3,13-dimethylhexadecahydro-1H-cyclopenta[a]phenanthren-17-yl)-2-((4-fluorophenyl)amino)ethan-1-one]", "values": [{"measurement": "Area under curve AUC0-t", "setting": "[1]; Balb/c, in vivo, 5 mg/kg", "value": 1067.1, "unit": "ng·h/mL"}, {"measurement": "Half-life t1/2", "setting": "[1]; Balb/c, in vivo, 5 mg/kg", "value": 1.36, "unit": "h"}, {"measurement": "Mean residence time MRT", "setting": "[1]; Balb/c, in vivo, 5 mg/kg", "value": 2.42, "unit": "h"}, {"measurement": "Plasma concentration Cmax", "setting": "[1]; Balb/c, in vivo, 5 mg/kg", "value": 558.0, "unit": "ng/mL"}, {"measurement": "AUC(0-t)", "setting": "[1]; [2]", "value": 545, "unit": "ng·h/mL"}, {"measurement": "half-life", "setting": "[1]; [3]", "value": 1.08, "unit": "h"}, {"measurement": "MRT", "setting": "[1]; [4]", "value": 1.78, "unit": "h"}, {"measurement": "Tmax", "setting": "[1]; [5]", "value": 0.5, "unit": "h"}, {"measurement": "Cmax", "setting": "[1]; [6]", "value": 408, "unit": "ng/mL"}, {"measurement": "Incubation period of the clonic seizure Mean ± SEM", "setting": "CD-1 mice", "value": "366.5 ± 21.1", "unit": "s"}, {"measurement": "Incubation period of the generalized tonic seizure Mean", "setting": "CD-1 mice", "value": "1519.9 ± 117.9", "unit": "s"}, {"measurement": "Mortality rate", "setting": "CD-1 mice", "value": 40, "unit": "%"}, {"measurement": "Number of clonic seizures Mean", "setting": "CD-1 mice", "value": "1.8 ± 0.2"}, {"measurement": "Number of generalized tonic seizures Mean", "setting": "CD-1 mice", "value": "0.4 ± 0.2"}, {"measurement": "Time when the animal died Mean", "setting": "CD-1 mice", "value": "1527.7 ± 114.6", "unit": "s"}]}, {"smiles": "C[C@@]1(O)CC[C@@]2(F)[C@H](CC[C@H]3[C@@H]4CC[C@H](C(=O)Cn5ccc(C(F)(F)F)n5)[C@@]4(C)CC[C@@H]32)C1", "note": "[Example 5, 1-((3R,5R,8S,9S,10R,13S,14S,17S)-10-Fluoro-3-hydroxy-3,13-dimethylhexadecahydro-1H-cyclopenta[a]phenanthren-17-yl)-2-(3-(trifluoromethyl)-1H-pyrazol-1-yl)ethan-1-one]", "values": [{"measurement": "Area under curve AUC0-t", "setting": "[1]; Balb/c, in vivo, 5 mg/kg", "value": 470.9, "unit": "ng·h/mL"}, {"measurement": "Area under curve AUC0-∞", "setting": "[1]; Balb/c, in vivo, 5 mg/kg", "value": 485.5, "unit": "ng·h/mL"}, {"measurement": "Half-life t1/2", "setting": "[1]; Balb/c, in vivo, 5 mg/kg", "value": 0.94, "unit": "h"}, {"measurement": "Mean residence time MRT", "setting": "[1]; Balb/c, in vivo, 5 mg/kg", "value": 1.74, "unit": "h"}, {"measurement": "Plasma concentration Cmax", "setting": "[1]; Balb/c, in vivo, 5 mg/kg", "value": 233.7, "unit": "ng/mL"}, {"measurement": "AUC(0-t)", "setting": "[1]; [2]", "value": 515, "unit": "ng·h/mL"}, {"measurement": "AUC(0-inf)", "setting": "[1]; Balb/c, in vivo, 5 mg/kg, Area under curve AUC0-∞", "value": 524, "unit": "ng·h/mL"}, {"measurement": "half-life", "setting": "[1]; [3]", "value": 1.16, "unit": "h"}, {"measurement": "MRT", "setting": "[1]; [4]", "value": 1.94, "unit": "h"}, {"measurement": "Tmax", "setting": "[1]; [5]", "value": 0.5, "unit": "h"}, {"measurement": "Cmax", "setting": "[1]; [6]", "value": 242, "unit": "ng/mL"}, {"measurement": "Incubation period of the clonic seizure Mean ± SEM", "setting": "CD-1 mice", "value": "644.5 ± 122.0", "unit": "s"}, {"measurement": "Incubation period of the generalized tonic seizure Mean", "setting": "CD-1 mice", "value": "1576.7 ± 108.8", "unit": "s"}, {"measurement": "Mortality rate", "setting": "CD-1 mice", "value": 40, "unit": "%"}, {"measurement": "Number of clonic seizures Mean", "setting": "CD-1 mice", "value": "1.8 ± 0.3"}, {"measurement": "Number of generalized tonic seizures Mean", "setting": "CD-1 mice", "value": "0.4 ± 0.2"}, {"measurement": "Time when the animal died Mean", "setting": "CD-1 mice", "value": "1623.0 ± 105.5", "unit": "s"}]}]}
